{
  "source": "paper PMC4274051",
  "about": "(Nature, 2013)",
  "molecular_target": "K-Ras(G12C) (Homo sapiens, UniProt P01116, G12C)",
  "sequence (P01116 1-169 isoform P01116-2 G12C)": "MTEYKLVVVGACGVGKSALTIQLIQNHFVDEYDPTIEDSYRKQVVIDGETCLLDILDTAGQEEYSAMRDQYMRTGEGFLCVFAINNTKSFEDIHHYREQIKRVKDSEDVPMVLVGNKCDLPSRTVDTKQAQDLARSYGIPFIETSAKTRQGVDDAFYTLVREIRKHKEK",
  "assay": "disulphide tethering, intact protein mass spectrometry",
  "type": "binding",
  "data": [
    {"smiles": "CN(C)CCSSCCNC(=O)C1CCN(C(=O)CSc2ccc(Cl)cc2)CC1", "note": "[6H05]", "values": [
      {"measurement": "% modification", "result": "94 ± 1", "unit": "% modification"}
    ]}
  ]
}
